Laboratory results taken from patent publication US20250034211A1, “C-TERMINAL EXTENDED P53 ACTIVATOR CROSSLINKED PEPTIDOMIMETIC MACROCYCLES AGAINST MDM2/MDMX” (Merck Sharp & Dohme LLC, priority 2021, published 2025).
In brackets after ≈: the same amount, converted by molar mass. Where two headings read alike, the source gives them in different places. Where a SMILES comes first, the peptide text is derived from it. Bridges are numbered along the chain shown (N, C = ends). [ ]: non-standard residue; d: D form. Lys(N3) = [N-]=[N+]=NCCCC[C@H](N)C(=O)O; Gla = N[C@@H](CC(C(=O)O)C(=O)O)C(=O)O; R8 = C=CCCCCCC[C@@](C)(N)C(=O)O; Cba = N[C@@H](CC1CCC1)C(=O)O; S5 = C=CCCC[C@](C)(N)C(=O)O; Aib = CC(C)(N)C(=O)O; βAla = NCCC(=O)O

Experiments:
[1] = test system: p53 (HCT116 cells stably transfected with a p53 responsive β-lactamase reporter); assay: p53 beta-lactamase reporter gene cellular functional assay; format: cell-based
Method: HCT116 cells were stably transfected with a p53 responsive β-lactamase reporter, and were seeded into a 384-well plate at a density of 8,000 cells per well. Cells were maintained in McCoy's 5A Medium with 10% fetal bovine serum ([…]), Blasticidin and Penicillin/Streptomycin. The cells were incubated overnight and followed by removal of cell growth media and replaced with Opti-MEM either containing 0% FBS or 10% FBS. Peptides were then dispensed to each well using a liquid handler, ECHO 555 and incubated for 4/16 hours. Final working concentration of dimethyl sulfoxide (DMSO) was 0.5%. β-Lactamase activity was detected using the ToxBLAzer Dual Screen (Invitrogen) as per manufacturer's instructions. Measurements were done using Envision multiplate reader (Perkin-Elmer). Maximum p53 activity was defined as the amount of β-lactamase activity induced by 50 μM azide-ATSP-7041 (stapled p53 peptide; Aileron Therapeutics, Inc.). This was determined as the highest amount of p53 activity induced by azide-ATSP-7041 by titration on HCT116 cells.

HCT116 cells = assay: Lactate dehydrogenase release assay (LDH); format: cell-based
Method: HCT116 cells were seeded into a 384-well plate at a density of 8000 cells per well. Cells were maintained in McCoy's 5A Medium with 10% fetal bovine serum (FBS), Blasticidin and Penicillin/Streptomycin. The cells were incubated overnight followed by the removal of cell media and the addition of Opti-MEM Medium without FBS. Cells were then treated with peptides for 4/16 hours in Opti-MEM either in 10% FBS or serum free. Final concentration of DMSO was 0.5%. Lactate dehydrogenase release was detected using CytoTox-ONE Homogenous Membrane Integrity Assay Kit (Promega) as per manufacturer's instructions. Measurements were carried out using Tecan plate reader. Maximum LDH release was defined as the amount of LDH released induced by the lytic peptide (iDNA79) and used to normalize the results.

[2] = Circular dichroism (CD) helicity; format: physicochemical
Method: The dried peptide was reconstituted in a buffer containing 1 mM HEPES pH 7.4 and 5% methanol to a concentration of 1 mM. The peptide sample was placed in a quartz cuvette with a path length of 0.2 cm and a CD spectrum was recorded from 300 to 190 nm at 25° C. using the Chirascan-plus qCD machine (Applied Photophysics). The actual concentration of the peptide was determined by the absorbance of the peptide at […]. An estimate of the secondary structure components of the peptide was carried out by converting the CD spectrum to mean residue ellipticity before deconvoluting using the CDNN software (distributed by Applied Photophysics). All experiments were done in duplicate.

[3] = test system: Jump-In T-REx CHO-K1 BLA cells; assay: Tetracycline beta-lactamase reporter gene assay (counter screen); format: cell-based
Method: Based on Jump-In™ T-REx™ CHO-K1 BLA cells and contain a stably integrated β-lactamase under the control of an inducible CMV promoter. Cells were seeded into a 384-well plate a density of 4000 cells per well. Cells were maintained in Dulbecco's Minimal Eagle Medium (DMEM) with 10% fetal bovine serum (FBS), Blasticidin and Penicillin/Streptomycin. The cells were incubated for 24 hours, followed by cell media removal and replacement with Opti-MEM either containing 10% FBS or 0% FBS. Peptides were then dispensed to each well using a liquid handler, ECHO 555 and incubated for 4/16 hours. Final working concentration of DMSO was 0.5%. β-Lactamase activity was detected using the ToxBLAzer Dual Screen (Invitrogen) as per manufacturer's instructions. Measurements were carried out using Envision multiplate reader (Perkin Elmer). Counter Screen activity was defined as the amount of 0-lactamase activity induced by tetracycline.

[4] = target: T1, MDM2 (1-125; SEQ ID NO 14) (Homo sapiens, UniProt Q00987); assay: MDM2 binding assay (fluorescence anisotropy competition, FP)
T1 construct: GST (N); His6 (internal); TEV cleavage site ENLYFQG (internal); made in house; host or cells: E. coli BL21 (DE3) Rosetta T1R
T1 sequence (Q00987 with tags, fused parts or gaps): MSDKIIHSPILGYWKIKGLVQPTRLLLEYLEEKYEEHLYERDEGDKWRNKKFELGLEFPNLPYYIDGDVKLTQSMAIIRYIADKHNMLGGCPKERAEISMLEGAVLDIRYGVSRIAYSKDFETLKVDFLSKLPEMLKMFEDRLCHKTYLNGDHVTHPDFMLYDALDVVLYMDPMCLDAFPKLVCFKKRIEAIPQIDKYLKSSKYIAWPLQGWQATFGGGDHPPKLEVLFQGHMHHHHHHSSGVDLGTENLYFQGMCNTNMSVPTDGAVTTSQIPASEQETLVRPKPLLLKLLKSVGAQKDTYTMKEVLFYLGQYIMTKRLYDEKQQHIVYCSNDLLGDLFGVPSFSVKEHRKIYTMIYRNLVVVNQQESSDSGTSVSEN
Method: [P] is the protein concentration (MDM2), [L] is the labeled peptide concentration, r is the anisotropy measured, r0 is the anisotropy of the free peptide, rb is the anisotropy of the MDM2-FAM-labeled peptide complex, Kd is the dissociation constant, [L]t is the total FAM labeled peptide concentration, and [P]t is the total MDM2 concentration. […] The competing molecules were then titrated against the complex of the FAM-labeled peptide and protein. Apparent Kd values were determined by fitting the experimental data to the equations shown below:
[L]st and [L]t denote labeled ligand and total unlabeled ligand input concentrations, respectively. Kd2 is the dissociation constant of the interaction between the unlabeled ligand and the protein. In all competition experiments, it is assumed that [P]t>[L]st, otherwise considerable amounts of free labeled ligand would always be present and would interfere with measurements. […] The FAM-labeled peptide was dissolved in dimethyl sulfoxide (DMSO) at 1 mM and diluted into experimental buffer. Readings were carried out with an Envision Multilabel Reader (PerkinElmer). […] All titrations were carried out in triplicate. Curve-fitting was carried out using Prism 4.0 (GraphPad). […] Negative control titrations of the ligands under investigation were also carried out with the fluorescently labeled peptide (in the absence of MDM2) to ensure no interactions were occurring between the ligands and the FAM-labeled peptide.

Solubility (PBS, pH 7) = details: for solubility: PBS, pH 7
p53 null Ca Ski = details: for % inhibition at maximum concentration in p53 null negative control cell line: maximum assay concentration (50 uM)
[5] = read-out: HCT116 proliferation EC50, 72 h, 10% serum

| Compound | EC50 ([1]; 0% serum at 4 hours) | EC50 ([1]; 10% serum at 16 hours) | HCT116 proliferation % Max (HCT116; 72 h, 10% serum) | EC50 (HCT116; [5]) | EC50 (HCT116; read-out: cellular efficacy in cell proliferation HTC116 p53 positive control cell lines) | EC50 (HCT116 cells; 0% FBS, 4 h) | EC50 (HCT116 cells; 10% FBS, 16 h) | CD (% helicity) [2] | EC50 ([3]; 0% FBS, 4 h) | EC50 ([3]; 10% FBS, 16 h) | Kd [4] | solubility (Solubility (PBS, pH 7)) | logD (HPLC LogD) | p53 null Ca Ski proliferation % Max (p53 null Ca Ski; 72 h, 10% serum) | % inhibition at maximum concentration in p53 null negative control cell line (p53 null Ca Ski) | solubility (in words) (Solubility (PBS, pH 7)) | fold improvement in HTC116 cell proliferation assay (HCT116; as compared to Macrocycle 3) | chromatographic logD (HPLC LogD) |
| --- | --- | --- | --- | --- | --- | --- | --- | --- | --- | --- | --- | --- | --- | --- | --- | --- | --- | --- |
| CC(=O)N[C@@H](CCCCN=[N+]=[N-])C(=O)NCCC(=O)N[C@@H](CC(C)C)C(=O)N[C@H](C(=O)N[C@@H](Cc1ccccc1)C(=O)N[C@]1(C)CCCCCCC=CCCC[C@@](C)(C(=O)N[C@@H](C)C(=O)N[C@@H](C)C(=O)N[C@@H](Cc2ccccc2)C(=O)N[C@@H](C)C(=O)N[C@@H](C)C(=O)N[C@@H](Cc2ccccc2)C(N)=O)NC(=O)[C@H](CC2CCC2)NC(=O)[C@H](CCC(N)=O)NC(=O)[C@H](C)NC(=O)[C@H](Cc2c[nH]c3ccccc23)NC(=O)[C@H](Cc2ccc(O)cc2)NC(=O)[C@H](CCC(=O)O)NC1=O)[C@@H](C)O [Macrocycle 4, Ac-K(N3)-betaAla-L-T-F-X1a-E-Y-W-A-Q-Cba-X2a-AAFAAF-NH2 (olefin staple from X1a to X2a)] (Ac-[Lys(N3)][βAla]LTF[R8]EYWAQ[Cba][S5]AAFAAF-NH2; staple 6-13) | 36 nM | 237 nM | 68% | 1210 nM | 1220 nM | > 50000 nM | > 50000 nM | 45% | 34500 nM | > 50000 nM | 27 nM | – | – | – | – | – | – | – |
| CC(=O)N[C@@H](CCCCN=[N+]=[N-])C(=O)NCCC(=O)N[C@@H](CC(C)C)C(=O)N[C@H](C(=O)N[C@@H](Cc1ccccc1)C(=O)N[C@]1(C)CCCCCCC=CCCC[C@@](C)(C(=O)N[C@@H](C)C(=O)N[C@@H](C)C(=O)N[C@@H](C)C(N)=O)NC(=O)[C@H](CC2CCC2)NC(=O)[C@H](CCC(N)=O)NC(=O)[C@H](C)NC(=O)[C@H](Cc2c[nH]c3ccccc23)NC(=O)[C@H](Cc2ccc(O)cc2)NC(=O)[C@H](CCC(=O)O)NC1=O)[C@@H](C)O [Reference Macrocycle 1, Ac-K(N3)-betaAla-L-T-F-X1a-E-Y-W-A-Q-Cba-X2a-AAA-NH2 (olefin staple from X1a to X2a), reference compound] (Ac-[Lys(N3)][βAla]LTF[R8]EYWAQ[Cba][S5]AAA-NH2; staple 6-13) | 339 nM | 847 nM | – | – | – | > 50000 nM | – | – | > 50000 nM | – | 36 nM | 108 µM (≈ 211 µg/mL) | 2.93 | – | – | – | – | – |
| CC(=O)N[C@@H](CCCCN=[N+]=[N-])C(=O)NCCC(=O)N[C@@H](CC(C)C)C(=O)N[C@H](C(=O)N[C@@H](Cc1ccccc1)C(=O)N[C@]1(C)CCCCCCC=CCCC[C@@](C)(C(=O)N[C@@H](CC(C(=O)O)C(=O)O)C(=O)N[C@@H](C)C(=O)N[C@@H](C)C(=O)N[C@@H](C)C(=O)N[C@@H](C)C(=O)N[C@@H](C)C(N)=O)NC(=O)[C@H](CC2CCC2)NC(=O)[C@H](CCC(N)=O)NC(=O)[C@H](C)NC(=O)[C@H](Cc2c[nH]c3ccccc23)NC(=O)[C@H](Cc2ccc(O)cc2)NC(=O)[C@H](CCC(=O)O)NC1=O)[C@@H](C)O [Macrocycle 11, Ac-K(N3)-betaAla-L-T-F-X1a-E-Y-W-A-Q-Cba-X2a-(Gla)AAAAA-NH2(olefinstaple from X1ato X2a)] (Ac-[Lys(N3)][βAla]LTF[R8]EYWAQ[Cba][S5][Gla]AAAAA-NH2; staple 6-13) | – | 527 nM | 73% | 790 nM | – | > 50000 nM | > 50000 nM | – | > 50000 nM | > 50000 nM | 0.32 nM | 163 µM (≈ 370 µg/mL) | – | −18% | −18% | excellent solubility | at least 2 fold | 2.25 |
| CC(=O)N[C@@H](CCCCN=[N+]=[N-])C(=O)NCCC(=O)N[C@@H](CC(C)C)C(=O)N[C@H](C(=O)N[C@@H](Cc1ccccc1)C(=O)N[C@]1(C)CCCCCCC=CCCC[C@@](C)(C(=O)N[C@@H](C)C(=O)N[C@@H](C)C(=O)N[C@@H](CCC(=O)O)C(=O)N[C@@H](C)C(=O)N[C@@H](C)C(=O)N[C@H](C)C(N)=O)NC(=O)[C@H](CC2CCC2)NC(=O)[C@H](CCC(N)=O)NC(=O)[C@H](C)NC(=O)[C@H](Cc2c[nH]c3ccccc23)NC(=O)[C@H](Cc2ccc(O)cc2)NC(=O)[C@H](CCC(=O)O)NC1=O)[C@@H](C)O [Macrocycle 10, Ac-K(N3)-betaAla-L-T-F-X1a-E-Y-W-A-Q-Cba-X2a-AAEAA-(D-Ala)-NH2(olefinstaple from X1ato X2a)] (Ac-[Lys(N3)][βAla]LTF[R8]EYWAQ[Cba][S5]AAEAA[dA]-NH2; staple 6-13) | – | – | – | – | – | > 50000 nM | > 50000 nM | – | – | – | 3.1 nM | 154 µM (≈ 343 µg/mL) | 2.14 | – | −18% | excellent solubility | – | – |
| CC(=O)N[C@@H](CCCCN=[N+]=[N-])C(=O)NCCC(=O)N[C@@H](CC(C)C)C(=O)N[C@H](C(=O)N[C@@H](Cc1ccccc1)C(=O)N[C@]1(C)CCCCCCC=CCCC[C@@](C)(C(=O)N[C@@H](C)C(=O)N[C@@H](C)C(=O)N[C@@H](Cc2ccccc2)C(=O)NC(C)(C)C(=O)N[C@@H](C)C(=O)N[C@@H](C)C(N)=O)NC(=O)[C@H](CC2CCC2)NC(=O)[C@H](CCC(N)=O)NC(=O)[C@H](C)NC(=O)[C@H](Cc2c[nH]c3ccccc23)NC(=O)[C@H](Cc2ccc(O)cc2)NC(=O)[C@H](CCC(=O)O)NC1=O)[C@@H](C)O [Macrocycle 8, Ac-K(N3)-betaAla-L-T-F-X1a-E-Y-W-A-Q-Cba-X2a-AAF-Aib-AA-NH2(olefinstaple from X1ato X2a)] (Ac-[Lys(N3)][βAla]LTF[R8]EYWAQ[Cba][S5]AAF[Aib]AA-NH2; staple 6-13) | – | – | – | – | – | 16700 nM | > 50000 nM | 35% | > 50000 nM | > 50000 nM | 7.4 nM | – | – | – | – | – | – | – |
